US20070282004A1, “Use of a Cyclopentenone Prostaglandin for Delaying for the Onset and/or Preventing the Continuation of Labour” (Imperial College Innovations Limited, priority 2003, published 2007)
Each block holds one compound with its values, some of them ahead of it. Residues, ends and D or L forms follow the SMILES beside them. *: point of attachment. Cbz = O=C(OCc1ccccc1)*

Experiments:
NF-κB [1] = assay: NF-κB-dependent luciferase reporter (κB.BG.Luc) in myometrial cells; type: cell-based, human; details: treated 2 h, IL-1β 1 ng/ml 6 h
Method: Myometrial cells were transiently transfected with the NFκB-dependent reporter construct κB.BG.Luc, treated with 15dPGJ2 or vehicle for 2 h, ±IL-1β (1 ng/ml) for 6 h. […] Values are normalised for b-gal reporter activity. (NS=nonstimulated).
Myometrial cells were transfected with […] κB.BG.Luc reporter and 200 ng PPAR-γ expression vector and treated with 15d-PGJ2 for 2 h followed by IL-1β (1 ng/ml) for 6 h. Values are normalised for β-galactosidase reporter activity. (NS=nonstimulated).
(§1) Myometrial tissue was collected at term from the upper margin of uterine incision at the time of lower segment caesarean section either prior to the onset of labour (L−) or […] (L+). L+ samples were collected by Dr Mark Johnson and Dr S Soorrana at Chelsea & Westminster Hospital. Myometrial tissue was dissected, rinsed in PBS, and digested in serum-free DMEM containing 15 mg/ml collagenase 1A (Sigma), 15 mg/ml collagenase X, and 50 mg/ml bovine serum albumin for 45 min at 37° C. The cell suspension was filtered through a cell strainer, centrifuged at 400 g for 5 min, and the pellet re-suspended and plated out in DMEM, 10% FCS (Helena BioScience), 1% L-glutainine, 1% penicillin-streptomycin. Cells were used between passage numbers 1-4.
pGL3.6κB.BG.luc: a NF-κB-dependent reporter construct with 6 copies of the NF-κB binding site.
Cells were co-transfected with the renilla vector pRL-CMV or β-galactosidase vector pCH110 as internal controls for transfection efficiencies.

NF-κB [2] = target: T1, NF-κB (Homo sapiens, UniProt P19838+Q04206); assay: EMSA of NF-κB DNA binding in nuclear extracts of treated myometrial cells; type: cell-based; details: myometrial cells; for IL-1β-induced NF-κB DNA binding (EMSA): then IL-1β 15 min; for Stimulation of NF-κB activity / induction of NFκB DNA binding by the compound alone: no cytokine
T1 construct: nuclear protein extracts from myometrial cells; endogenous in cells; host or cells: primary human myometrial cells (term, passage 1-4)
Method: as §1
(§2) Nuclear and cytosolic protein extracts were obtained from cultured amnion cells as described by Schreiber et al (1989). For nuclear/cytosolic fractionation, confluent cell monolayers were scraped and lysed using a buffer containing 10 mM HEPES, 10 mM KCl, 0.1 mM EDTA, 0.1 mM EGTA, 2 mM DTT, 1% (v/v) NP-40 and complete protease inhibitor tablets (CPIs, Roche), diluted to manufacturer's instructions. Cell lysates were incubated on ice for 10 min and NP-40 added to a final concentration of 1% (v/v). Lysates were vortexed for 10 secs and centrifuged for 30 secs at 4° C., 12000 g. The supernatants were retained as the cytosolic protein extracts. The pellets were resuspended in buffer containing 10 mM HEPES, 10 mM KCl, 0.1 mM EDTA, 0.1 mM EGTA, 2 mM DTT, 400 mM NaCl, 1% NP-40 (v/v) and CPIs. Samples were shaken vigorously for 15 min in an ice bath. The nuclear protein extracts were obtained in the supernatant following a 5 min centrifugation at 4° C., 12000 g.
(§3) Sense and antisense strands (175 nmole/ml each) were incubated in annealing buffer (10 mM Tris-HCl pH7.5, 100 mM NaCl, 1 mM EDTA) for 10 min at 65° C., and allowed to cool at room temperature for 2 h. 3.5 pmole double-stranded oligonucleotides were end-labelled with 0.37 MBq ^32P(γATP) by incubating for 30 min at 37° C. with T4 polynucleotide kinase. Labelled oligonucleotides were recovered by centrifugation at 3000 rpm for 2 min through MicroSpin G-25 or G-50 sephadex columns (Amersham Biosciences).
(§4) 3-5 μg protein extracts were incubated on ice for 1 h with non-radiolabelled non-specific oligonucleotide (poly(dI-dC) or Oct-1) in a binding buffer (20% (v/V) glycerol, 5 mM MgCl2, 2 mM EDTA, 50 mM Tris-HCl pH7.5, 250 mM NaCl, 2 mM DTT), followed by a 45 min incubation with 0.035 pmole ^32P(γ(ATP)-end labelled oligonucleotide probes:
(§5) Oct-1 or SP-1 consensus sequences were used as a controls for a NF-κB-specific effect. The resulting protein/DNA complexes were separated in a 4% acrylamide gel, the gel dried under vacuum at 80° C. and exposed to X-ray film. For supershift analysis, samples were incubated with 2 μg antibodies for 30 min on ice prior to incubation with oligonucleotides. Non-radio-labelled oligonucleotides were used at 100-fold molar excess for specific and non-specific competition for DNA binding. Reagents for EMSA were obtained from Promega Life Sciences, Delta House, Chilworth Research Centre, Southampton SO16 7NS, United Kingdom.

NF-κB [3] = assay: Western immunoblot of p65, p50, IκB in amnion cell extracts; type: cell-based, human; details: L−, L+ amnion cells, treated 2 h, IL-1β 15 min
Method: (§6) Western immunoblots of nuclear or cytosolic protein extracts from (A) myometrial cells, (B) L− amnion cells, and (C) L+ amnion cells treated with 15dPGJ2 or vehicle for 2 h±IL-1β stimulation (15 min). Blots probed with antibodies against p65, p50 or IκBα.
(§7) Placentae were obtained from patients at term either at elective Caesarean section prior to labour (L−) or following spontaneous labour onset and vaginal delivery (L+). Amnion cells were prepared as described in Bennett et al., (1989). Briefly, the amnion was separated from the placenta, washed 3× in PBS, cut into strips, and incubated in 0.5 mM EDTA in PBS for 15 min. The strips were washed in PBS 2× and digested with 2.5 mg/ml dispase in serum-free DMEM for 35 min at 37° C. The amnion was then shaken vigorously in DMEM, 10% FCS to dissociate the cells, the remaining strips discarded, and the cell suspension pelleted at 175 g for 10 min and cultured in DMEM, 10% FCS (Sigma), 1% L-glutamine, 1% penicillin-streptomycin.
as §2
Protein samples (20-70 μg) were mixed with Laemmli sample buffer (1:1) containing β-mercaptoethanol (5%), and boiled for 5 min. Proteins were then separated by SDS-PAGE (12-14% gels) and transferred onto PVDF membrane (Amersham Pharmacia Biotech). The membranes were blocked overnight in 5% non-fat milk prepared in PBS-T buffer, at 4° C. The blots were incubated with the primary antibody in 1% non-fat milk in PBS-T buffer for 1 h, and washed three times (10 min each) in PBS-T with vigorous shaking. The blots were then incubated with HRP-conjugated secondary antibody (diluted 1:2000 in 1% non-fat milk in PBS-T buffer) for 1 h and washed three times (10 min each) in PBS-T. Signal detection was achieved using enhanced chemi-luminescence (ECL plus system, Amersham Pharmacia Biotech) according to manufacturer's instructions.
30-50 μg protein extracts were subjected to SDS-PAGE and Western immuno-blotting. Secondary antibodies were IgG-HRP and ECL Plus detection kit (Amersham Pharmacia Biotech, Amersham Place, Little Chalfont, Bucks, HP7 9NA) was used for visualisation.

NF-κB [4] = assay: Western immunoblot of p65, p50, IκB in myometrial cell extracts; type: cell-based, human; details: myometrial cells, IL-1β 15 min
Method: as §6
Western immunoblots of nuclear or cytosolic protein extracts from myometrial cells treated with PGA1 or vehicle for 2 h followed by IL-1β stimulation (15 min). Blots probed with antibodies against p65 or IκBa.
Western immunoblots of cytosolic extracts from myometrial cells (A) treated with 15dPGJ2 for 2h±IL1b for 15 min; probed for IKK, and (B) treated with […] 15dPGJ2, […] MG132 or vehicle for 2 h, ±IL-1β for 15 min; probed for IκBα.
(A) NF-κB-DNA binding was measured by EMSA in nuclear protein extracts from myometrial cells pre-treated with vehicle, 15d-PGJ2 or PGA1 for 2 h, followed by stimulation with IL-1β (1 ng/ml) for 15 min. Antibodies against p50 and p65 were used for supershift analysis. (B) Myometrial cells were transiently transfected with a NF-κB-LUC reporter and a β-gal reporter plasmid, pre-treated with vehicle or PGA1 for 2 h, and stimulated with IL-1β (1 ng/ml) for 6 h. Luciferase activity was normalized for β-gal reporter readout. Values are presented as the mean±SEM obtained for each treatment done in triplicate. Western blot analysis of nuclear p65 and p50 expression in myometrial cells treated with (C) PGA1 or (D) 15d-PGJ2 for 2 h, followed by stimulation with IL-1β (1 ng/ml) for 15 min. (E) Western blot analysis of whole cell lysates from myometrial cells treated with 15d-PGJ2 or 9,10-dihydro-15d-PGJ2 for 2 h, followed by stimulation with IL-1β (1 ng/ml) for 15 min. Membranes were probed with antibodies against p65 and Ser 536-phosphorylated p65.
as §1, §2
Protein samples (20-70 μg) were mixed with Laemmli sample buffer (1:1) containing β-mercaptoethanol (5%), and boiled for 5 min. Proteins were then separated by SDS-PAGE (12-14% gels) and transferred onto PVDF membrane (Amersham Pharmacia Biotech). The membranes were blocked overnight in 5% non-fat milk prepared in PBS-T buffer, at 4° C. The blots were incubated with the primary antibody in 1% non-fat milk in PBS-T buffer for 1 h, and washed three times (10 min each) in PBS-T with vigorous shaking. […]

NF-κB [5] = target: T1, NF-κB; assay: EMSA of NF-κB DNA binding in nuclear extracts of treated amnion cells; type: cell-based
Method: as §7, §2, §3, §4, §5

[6] = tested on: ductus arteriosus, fetal urine output; details: in vivo; cited from earlier work
[7] = tested on: contractions of pre-term labour; details: people; cited from earlier work
NF-κB [8] = assay: NF-κB-dependent luciferase reporter (κB.BG.Luc) in myometrial cells; type: cell-based, human; details: 200 ng PPAR-γ expression vector, 10 mM troglitazone 7 h, IL-1β 17 h
PPAR-γ = target: T2, PPAR-γ (Homo sapiens, UniProt P37231); details: as stated from the literature; cited from earlier work
T2 sequence (P37231 1-505): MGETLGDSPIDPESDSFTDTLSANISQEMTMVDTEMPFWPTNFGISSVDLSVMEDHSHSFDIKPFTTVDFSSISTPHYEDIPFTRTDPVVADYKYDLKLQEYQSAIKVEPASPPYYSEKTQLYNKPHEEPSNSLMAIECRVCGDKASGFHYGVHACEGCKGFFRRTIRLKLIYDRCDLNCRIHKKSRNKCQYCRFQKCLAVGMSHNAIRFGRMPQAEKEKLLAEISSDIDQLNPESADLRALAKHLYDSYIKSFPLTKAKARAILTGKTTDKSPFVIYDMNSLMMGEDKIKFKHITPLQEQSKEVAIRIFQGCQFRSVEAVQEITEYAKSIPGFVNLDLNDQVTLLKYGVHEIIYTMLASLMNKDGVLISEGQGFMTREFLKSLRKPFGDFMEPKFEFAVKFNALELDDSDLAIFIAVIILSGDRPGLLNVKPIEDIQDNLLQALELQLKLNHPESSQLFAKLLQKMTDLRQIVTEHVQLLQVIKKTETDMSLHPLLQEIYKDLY

T1 sequence (Q04206 whole entry): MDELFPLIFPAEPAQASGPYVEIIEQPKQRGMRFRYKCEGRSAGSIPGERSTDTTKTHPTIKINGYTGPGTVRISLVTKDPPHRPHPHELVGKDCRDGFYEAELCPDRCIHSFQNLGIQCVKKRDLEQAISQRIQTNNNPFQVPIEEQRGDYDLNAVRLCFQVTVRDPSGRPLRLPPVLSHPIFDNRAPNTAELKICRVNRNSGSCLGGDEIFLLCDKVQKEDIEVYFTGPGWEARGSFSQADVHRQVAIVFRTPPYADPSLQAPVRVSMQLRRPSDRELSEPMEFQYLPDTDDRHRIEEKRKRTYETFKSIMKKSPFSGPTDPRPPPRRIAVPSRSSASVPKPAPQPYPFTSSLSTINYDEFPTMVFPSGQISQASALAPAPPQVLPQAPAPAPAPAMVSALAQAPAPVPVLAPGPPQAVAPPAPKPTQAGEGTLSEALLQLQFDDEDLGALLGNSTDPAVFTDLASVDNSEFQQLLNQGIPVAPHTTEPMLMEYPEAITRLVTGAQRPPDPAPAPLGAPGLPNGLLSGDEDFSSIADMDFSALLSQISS
T1 sequence (P19838 1-433 limits assumed): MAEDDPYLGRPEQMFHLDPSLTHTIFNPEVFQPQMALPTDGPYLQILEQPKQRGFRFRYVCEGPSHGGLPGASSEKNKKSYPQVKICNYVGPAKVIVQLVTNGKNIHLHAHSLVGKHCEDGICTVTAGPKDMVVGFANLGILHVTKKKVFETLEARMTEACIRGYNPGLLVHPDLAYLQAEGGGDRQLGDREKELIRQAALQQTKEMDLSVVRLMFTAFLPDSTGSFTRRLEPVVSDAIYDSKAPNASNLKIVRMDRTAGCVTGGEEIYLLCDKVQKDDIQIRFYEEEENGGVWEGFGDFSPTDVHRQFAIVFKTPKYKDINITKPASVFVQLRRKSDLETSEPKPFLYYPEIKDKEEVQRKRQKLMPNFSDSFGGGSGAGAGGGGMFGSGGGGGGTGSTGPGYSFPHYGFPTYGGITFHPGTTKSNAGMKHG

IL-1β-induced NF-κB DNA binding (EMSA) (NF-κB [2]; treated 2 h): failed to inhibit
SMILES: CN(CCOc1ccc(C[C@H](Nc2ccccc2C(=O)c2ccccc2)C(=O)O)cc1)c1ccccn1 [GW1929, reference compound]
IL-1β-induced NF-κB transcriptional activity (κB.BG.Luc reporter) (NF-κB [1]): does not inhibit

Synergy with IL-1β or TNFα on NF-κB activity (NF-κB [2]): nor did it synergise
Stimulation of NF-κB activity / induction of NFκB DNA binding by the compound alone (NF-κB [2]): neither did it stimulate
IL-1β-induced NF-κB DNA binding (EMSA) (NF-κB [2]; treated 2 h): did not inhibit
IL-1β-induced NF-κB DNA binding (EMSA) (NF-κB [5]; L− and L+ amnion cells, treated 2 h, then IL-1β 15 min): did not inhibit
SMILES: CCCCC(C)(C)[C@H](O)/C=C/[C@H]1[C@H](O)CC(=O)[C@@H]1C/C=C\CCCC(=O)O [16,16-Dimethyl-PGE2, reference compound]
IL-1β-induced p65 nuclear translocation (NF-κB [3]): did not inhibit
IL-1β-induced p65 nuclear translocation (NF-κB [4]; treated 2 h): did not inhibit

SMILES: CC1=C(CC(=O)O)c2cc(F)ccc2/C1=C\c1ccc([S+](C)[O-])cc1 (centres unmarked) [Sulindac]
Effect on ductal patency [6]: minimal effect
Fetal urine output [6]: smaller reduction
Tocolytic efficacy [7]: equally good

SMILES: CC(C)C[C@@H](C=O)NC(=O)[C@H](CC(C)C)NC(=O)[C@H](CC(C)C)NC(=O)OCc1ccccc1 [MG132, reference compound] (Cbz-Leu-Leu-Leu-aldehyde)
Accumulation of phosphorylated IκBα (NF-κB [4]; 2 h): resulted in the accumulation

SMILES: COc1ccc2c(c1)c(CC(=O)O)c(C)n2C(=O)c1ccc(Cl)cc1 [Indomethacin]
Tocolytic efficacy [7]: effective in preventing the contractions

SMILES: Cc1c(C)c2c(c(C)c1O)CCC(C)(COc1ccc(CC3SC(=O)NC3=O)cc1)O2 (centres unmarked) [troglitazone]
NF-κB-dependent reporter in PPARγ-transfected cells (NF-κB [8]): does not inhibit

Stimulation of NF-κB activity / induction of NFκB DNA binding by the compound alone (NF-κB [2]): does not induce
TNFα- and IL-1β-induced NFκB activation (EMSA, nuclear p65) (NF-κB [2]; treated 2 h, TNFα or IL-1β 15 min): does not inhibit
Induction of NFκB DNA binding by the compound alone (NF-κB [5]; L− amnion cells, no cytokine): does not induce
SMILES: CCCCC[C@H](O)/C=C/[C@H]1[C@H](O)CC(=O)[C@@H]1C/C=C\CCCC(=O)O [PGE2, prostaglandin E2, reference compound]
PPAR agonist / ligand activity (PPAR-γ): does not activate PPAR-γ

SMILES: CCCCCC=CC=C1CCC(=O)C1CC=CCCCC(=O)O (centres unmarked) [9,10-dihydro-15d-PGJ2, 9,10-di-hydro-15-deoxy-Δ^12,14-Prostaglandin J2, reference compound]
Reproduction of the effects of 15d-PGJ2 on NF-κB (incl. Ser 536-phosphorylated p65) (NF-κB [4]; 2 h, similar in amnion epithelial cells): could not reproduce the effects
PPAR agonist / ligand activity (PPAR-γ): retains PPARγ agonist activity
